Source: patent US10829520B2, “Beta-hairpin peptidomimetics” (POLYPHOR AG, priority 2015, dated 2020)
Where a SMILES comes first, the peptide text is derived from it. Bridges are numbered along the chain shown (N, C = ends). Roman numbers before positions name the chains, in order. [ ]: non-standard residue; d: D form. The star is where a group is joined. NαAmidinoTrp = N=C(N)N[C@@H](Cc1c[nH]c2ccccc12)C(=O)*; Pen = CC(C)(S)[C@H](N)C(=O)O; Tle = CC(C)(C)[C@H](N)C(=O)O; dDab = NCC[C@@H](N)C(=O)O; Nle = CCCC[C@H](N)C(=O)O; Orn = NCCC[C@H](N)C(=O)O; Dab = NCC[C@H](N)C(=O)O; Dap = NC[C@H](N)C(=O)O

How the values were obtained:
Type in all cases: cell-based
[1] = tested on: human red blood cells (hRBC); assay: Hemolysis of human red blood cells; details: red cells of human, 1 h
In short: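 Percent hemolysis = OD540 of peptide-treated supernatant relative to the 2.5% Triton X-100 (100%) control, PBS containing 0.001% acetic acid defining 0%. Peptides tested at 100 μg/mL against 20% (v/v) washed human RBC, 1 h, 37 °C, 300 rpm.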

[2] = tested on: Escherichia coli ATCC 25922; details: ATCC 25922
In short: (§1)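 MIC in μg/mL; CLSI microdilution; cation-adjusted Mueller-Hinton II with Polysorbate 80 (0.002%); 10^6 CFU/mL; 35° C, 18-20 h.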

[3] = tested on: Klebsiella pneumoniae 968733; details: 968733
Escherichia coli 926415 = details: 926415
[4] = tested on: Pseudomonas aeruginosa ATCC 27853; details: ATCC 27853
In short: as §1

[5] = tested on: Acinetobacter baumannii DSM 30008; details: DSM 30008
In short: as §1

[6] = tested on: Acinetobacter baumannii 872842; details: 872842
[7] = tested on: Klebsiella pneumoniae SSI #3010; details: SSI #3010
In short: as §1

Compound	Hemolysis at 100 μg/mL ([1]; 100 μg/mL)	Escherichia coli ATCC 25922 MIC [2]	Klebsiella pneumoniae 968733 MIC [3]	Escherichia coli 926415 MIC (Escherichia coli 926415)	Pseudomonas aeruginosa ATCC 27853 MIC [4]	Acinetobacter baumannii DSM 30008 MIC [5]	Acinetobacter baumannii 872842 MIC [6]	Klebsiella pneumoniae SSI #3010 MIC [7]	Hemolysis at 100 μg/mL [1]; 100
CC(=O)N[C@@H](Cc1c[nH]c2ccccc12)C(=O)N[C@@H](CCN)C(=O)N[C@H](C(=O)N[C@H]1CSSC[C@@H](C(=O)N[C@@H](Cc2ccc(O)cc2)C(=O)N[C@@H](CCN)C(=O)N[C@@H](CN)C(=O)N[C@@H](CCN)C(=O)N[C@@H](CCN)C(=O)N[C@@H](CCN)C(=O)N[C@H]2CCNC(=O)[C@H]([C@@H](C)O)NC(=O)[C@H](CCN)NC(=O)[C@H](CCN)NC(=O)[C@H](CC(C)C)NC(=O)[C@@H](Cc3ccccc3)NC(=O)[C@H](CCN)NC2=O)NC(=O)[C@H](C(C)C)NC(=O)[C@@H]2CCCN2C(=O)[C@@H](Cc2ccc(O)cc2)NC(=O)[C@H]([C@@H](C)O)NC1=O)C(C)(C)C [Ex. 160] (Ac-W[Dab][Tle]CT[dY]PVCY[Dab][Dap][Dab][Dab][Dab][Dab][Dab][dF]L[Dab][Dab]T; disulfide 4-9; lactam 16-C)	<1%	0.5 µg/mL	4 µg/mL	2 µg/mL	0.25 µg/mL	0.5 µg/mL	1 µg/mL	1 µg/mL	
CC(C)C[C@@H]1NC(=O)[C@H](CO)NC(=O)[C@H](C(C)C)NC(=O)[C@@H]2CCCN2C(=O)[C@H]2CCCN2C(=O)[C@H](CO)NC(=O)[C@H](C)NC(=O)[C@H](C(C)(C)C)NC(=O)[C@@H](NC(=O)[C@@H](N)Cc2c[nH]c3ccccc23)CSSC[C@@H](C(=O)N[C@@H](CCCN)C(=O)N[C@@H](CCN)C(=O)N[C@H]2CCNC(=O)[C@H]([C@@H](C)O)NC(=O)[C@H](CCN)NC(=O)[C@H](CCN)NC(=O)[C@H](CC(C)C)NC(=O)[C@@H](Cc3ccccc3)NC(=O)[C@H](CCN)NC2=O)NC1=O [Ex. 188] (H-WC[Tle]AS[dP]PVSLC[Orn][Dab][Dab][Dab][dF]L[Dab][Dab]T; disulfide 2-11; lactam 14-C)	<1%	0.25 µg/mL	4 µg/mL	0.25 µg/mL	1 µg/mL	0.25 µg/mL	1 µg/mL	0.25 µg/mL	
CCCC[C@@H]1NC(=O)[C@@H]2CCCN2C(=O)[C@H]2CCCN2C(=O)[C@H](CO)NC(=O)[C@H](C)NC(=O)[C@H](C(C)(C)C)NC(=O)[C@@H](NC(=O)[C@H](Cc2c[nH]c3ccccc23)NC(=O)[C@H](C)NC(C)=O)CSSC[C@@H](C(=O)N[C@@H](CCN)C(=O)N[C@H](C(=O)N[C@@H](CCN)C(=O)N[C@H]2CCNC(=O)[C@H]([C@@H](C)O)NC(=O)[C@H](CCN)NC(=O)[C@H](CCN)NC(=O)[C@H](CC(C)C)NC(=O)[C@@H](Cc3ccccc3)NC(=O)[C@H](CCN)NC2=O)[C@@H](C)O)NC(=O)[C@H](Cc2ccc(O)cc2)NC(=O)[C@H](CO)NC1=O [Ex. 41] (Ac-AWC[Tle]AS[dP]P[Nle]SYC[Dab]T[Dab][Dab][Dab][dF]L[Dab][Dab]T; disulfide 3-12; lactam 16-C)	<1%	2 µg/mL	1 µg/mL	0.5 µg/mL	0.5 µg/mL	0.5 µg/mL	0.5 µg/mL	0.25 µg/mL	
CCCC[C@@H]1NC(=O)[C@@H]2CCCN2C(=O)[C@H]2CCCN2C(=O)[C@H](CO)NC(=O)[C@H](CO)NC(=O)[C@H](C(C)(C)C)NC(=O)[C@@H](NC(=O)[C@@H](N)Cc2c[nH]c3ccccc23)CSSC[C@@H](C(=O)N[C@@H](C(=O)N[C@@H](CCN)C(=O)N[C@H](CCN)C(=O)N[C@H]2CCNC(=O)[C@H]([C@@H](C)O)NC(=O)[C@H](CCN)NC(=O)[C@H](CCN)NC(=O)[C@H](CC(C)C)NC(=O)[C@@H](Cc3ccccc3)NC(=O)[C@H](CCN)NC2=O)[C@H](C)O)NC(=O)[C@H](Cc2ccc(O)cc2)NC(=O)[C@H](CO)NC1=O [Ex. 107] (H-WC[Tle]SS[dP]P[Nle]SYC[dT][Dab][dDab][Dab][Dab][dF]L[Dab][Dab]T; disulfide 2-11; lactam 15-C)	0.3%	0.125 µg/mL	0.5 µg/mL	0.125 µg/mL	0.25 µg/mL	0.0625 µg/mL	0.125 µg/mL	0.5 µg/mL	
CCCC[C@@H]1NC(=O)[C@@H]2CCCN2C(=O)[C@H]2CCCN2C(=O)[C@H](CO)NC(=O)[C@H](C)NC(=O)[C@H](C(C)(C)C)NC(=O)[C@@H](NC(=O)[C@H](Cc2c[nH]c3ccccc23)NC(C)=O)CSSC[C@@H](C(=O)N[C@@H](CCN)C(=O)N[C@@H](CCN)C(=O)N[C@H](C(=O)N[C@@H](CCN)C(=O)N[C@H]2CCNC(=O)[C@H]([C@@H](C)O)NC(=O)[C@H](CCN)NC(=O)[C@H](CCN)NC(=O)[C@H](CC(C)C)NC(=O)[C@@H](Cc3ccccc3)NC(=O)[C@H](CCN)NC2=O)[C@@H](C)O)NC(=O)[C@H](Cc2ccc(O)cc2)NC(=O)[C@H](CO)NC1=O [Ex. 27] (Ac-WC[Tle]AS[dP]P[Nle]SYC[Dab][Dab]T[Dab][Dab][Dab][dF]L[Dab][Dab]T; disulfide 2-11; lactam 16-C)	<1%	0.0625 µg/mL	0.5 µg/mL	0.5 µg/mL	0.25 µg/mL	0.125 µg/mL	0.125 µg/mL	0.125 µg/mL	
CC(C)C[C@@H]1NC(=O)[C@@H](CC(C)C)NC(=O)[C@H](CCN)NC(=O)[C@@H](NC(=O)[C@H](CCN)NC(=O)[C@@H](NC(=O)[C@H](CCN)NC(=O)CNC(=O)[C@H]2NC(=O)[C@H](Cc3ccc(O)cc3)NC(=O)[C@H](CO)NC(=O)[C@H](CC(C)C)NC(=O)[C@@H]3CCCN3C(=O)[C@H]3CCCN3C(=O)[C@H](CO)NC(=O)[C@H](C)NC(=O)[C@H](C(C)C)NC(=O)[C@@H](NC(=O)[C@H](Cc3c[nH]c4ccccc34)NC(=N)N)CSSC2(C)C)[C@@H](C)O)CCNC(=O)[C@H]([C@@H](C)O)NC(=O)[C@H](CCN)NC(=O)[C@H](CCN)NC1=O [Ex. 173] (NαAmidinoTrp-CVAS[dP]PLSY[Pen]G[Dab]T[Dab][Dab][Dab][dL]L[Dab][Dab]T; disulfide 1-10; lactam 15-C)	1%	0.125 µg/mL	1 µg/mL	0.5 µg/mL	0.5 µg/mL	0.125 µg/mL	0.25 µg/mL	0.125 µg/mL	
CC(C)C[C@@H]1NC(=O)[C@@H](CC(C)C)NC(=O)[C@H](CCN)NC(=O)[C@@H](NC(=O)[C@H](CCN)NC(=O)[C@H](NC(=O)[C@H](CCN)NC(=O)[C@H](CCCN)NC(=O)[C@@H]2CSSC[C@H](NC(=O)[C@@H](N)Cc3c[nH]c4ccccc34)C(=O)N[C@@H](C(C)C)C(=O)N[C@@H](C)C(=O)N[C@@H](CO)C(=O)N3CCC[C@@H]3C(=O)N3CCC[C@H]3C(=O)N[C@@H](CC(C)C)C(=O)N[C@@H](CO)C(=O)N[C@@H](Cc3ccc(O)cc3)C(=O)N2)[C@H](C)O)CCNC(=O)[C@H]([C@@H](C)O)NC(=O)[C@H](CCN)NC(=O)[C@H](CCN)NC1=O [Ex. 121] (H-WCVAS[dP]PLSYC[Orn][Dab][dT][Dab][Dab][Dab][dL]L[Dab][Dab]T; disulfide 2-11; lactam 16-C)	<1%	0.125 µg/mL	0.25 µg/mL	0.125 µg/mL	0.5 µg/mL	0.125 µg/mL	0.125 µg/mL	0.25 µg/mL	
CC(C)C[C@@H]1NC(=O)[C@H](CCN)NC(=O)[C@@H](CCN)NC(=O)[C@H](CCC(=O)N[C@@H](CCN)C(=O)N[C@H](C(=O)N[C@@H](CCN)C(=O)N[C@H]2CCNC(=O)[C@H]([C@@H](C)O)NC(=O)[C@H](CCN)NC(=O)[C@H](CCN)NC(=O)[C@H](CC(C)C)NC(=O)[C@@H](CC(C)C)NC(=O)[C@H](CCN)NC2=O)[C@@H](C)O)NC(=O)[C@H](CCN)NC(=O)[C@H](Cc2ccc(O)cc2)NC(=O)[C@H](CO)NC(=O)[C@H](CC(C)C)NC(=O)[C@@H]2CCCN2C(=O)[C@H]2CCCN2C(=O)[C@H](Cc2ccc(O)cc2)NC(=O)[C@H]([C@@H](C)O)NC(=O)[C@H](C(C)C)NC(=O)[C@H](CCN)NC1=O [Ex. 99] (I: cyclo(LSY[Dab]E[dDab][Dab]L[Dab]VTY[dP]P) / II: [Dab]T[Dab][Dab][Dab][dL]L[Dab][Dab]T; amide I:5-II:N; lactam II:4-II:C)		0.125 µg/mL	0.5 µg/mL	0.25 µg/mL	0.5 µg/mL	0.25 µg/mL	0.25 µg/mL	0.25 µg/mL	4%
